Data set [1] can be described thus: Solubility versus pH profile.
Data set [2] in a line: ThT assay: fibril formation propensity and peptide recovery. Particulars: for recovery: residual dissolved peptide after 45 h of shaking, centrifugation and 0.22 μm filtration, HPLC, relative to amount before stress. Type of data set: physicochemical. On the procedure:
The stability properties of the individual amylin analogs were assessed with respect to their propensity toward fibril formation, expressed as the time until fibril formation (measured as Lag time) and loss of dissolved peptide (assessed as Peptide Recovery). […] Samples were prepared as described previously (using the same methodology and materials) for a novel amylin-based analog candidate compound.[7]
Briefly, each compound was dissolved in 10 mM of glycylglycine buffer (pH 4.0) or HEPES buffer (pH 7.5) to a concentration of 250 μM, followed by ThT stock solution to a final concentration of 1 μM. Each solution was aliquoted into a microtiter plate (200 μL/well) sealed with a transparent adhesive sheet. Mechanical stress was applied at 37 °C incubation (960 rpm, 1 mm amplitude) with 20 min fluorescence reading intervals for 45 h (filters: excitation 444 nm; emission 485 nm). Each peptide was tested in experiments consisting of four replicas (e.g., four wells on the same plate), and the lag time of each replica was determined by visual inspection of the fluorescence-versus-time plot. For wells where no fibril formation could be detected, the lag time was set longer than the test period (>45 h). The lag time of the peptide was set to the lowest lag time of the four replicates (conservative estimate). Some of the peptides were tested in more than one experiment, and the lag time results given in Tables 6 and 9 represent the average of these experiments. The ThT time course data given in Supporting Information represent the average and SEM of each experiment.[40] After analysis, wells representing individual replicas were pooled, and the residual soluble peptide was isolated using centrifugation (20,000 g/30 min at room temperature) followed by […] filtration. The amount of residual dissolved peptide was determined using an HPLC with a flow rate of 2 mL/min at 30 °C and 215/276 nm detection. A gradient combining eluent A (7.7% w/w acetonitrile, 200 mM Na2SO4, 20 mM NaH2PO4, 20 mM Na2HPO4, pH 7.2) and eluent B (65.5% w/w acetonitrile) was applied. The amount of residual dissolved peptide was reported on a relative scale (Peptide Recovery) to the amount of dissolved peptide prior to mechanical stress.

Data set [3] is described as follows: HMWP content by size-exclusion chromatography. Particulars: covalent dimers and polymers prior to fibril formation testing, SEC, % of total absorbance area at 215 nm. It is filed as physicochemical. On the procedure:
The stability properties of the individual amylin analogs were assessed with respect to their propensity toward amyloid fibril formation. The relative amount of covalent dimers and polymers (HMWP) present prior to fibril formation testing was measured as a control for the potential inhibitory effect of HMWP on fibril formation propensity as reported elsewhere.[39]
Elution was performed under isocratic conditions with the following mobile phase prepared in Milli-Q water (Millipore A/S): 0.5 M NaCl, 10 mM sodium dihydrogen monohydrate, 5 mM ortho-phosphoric acid, 50% (v/v) 2-propanol. The amount of HMWP was determined as the absorbance area of the corresponding peaks given in percentage of the total absorbance area. The molar extinction coefficients of the molecules eluting in the HMWP fraction and the main peak was assumed to be equal.
(In general: Size exclusion chromatography separates by hydrodynamic size, large species first.)

The test system of a further data set is rats. Kind of data set: Acute food intake in rats. Type of data set: in vivo, rat. Particulars: single sc injection of 30 nmol/kg, relative to vehicle, mean ± SEM, n = 5–7 per group.
In a further data set the target is T1, hCTR (Homo sapiens, UniProt P30988).
T1 sequence (P30988 25-474): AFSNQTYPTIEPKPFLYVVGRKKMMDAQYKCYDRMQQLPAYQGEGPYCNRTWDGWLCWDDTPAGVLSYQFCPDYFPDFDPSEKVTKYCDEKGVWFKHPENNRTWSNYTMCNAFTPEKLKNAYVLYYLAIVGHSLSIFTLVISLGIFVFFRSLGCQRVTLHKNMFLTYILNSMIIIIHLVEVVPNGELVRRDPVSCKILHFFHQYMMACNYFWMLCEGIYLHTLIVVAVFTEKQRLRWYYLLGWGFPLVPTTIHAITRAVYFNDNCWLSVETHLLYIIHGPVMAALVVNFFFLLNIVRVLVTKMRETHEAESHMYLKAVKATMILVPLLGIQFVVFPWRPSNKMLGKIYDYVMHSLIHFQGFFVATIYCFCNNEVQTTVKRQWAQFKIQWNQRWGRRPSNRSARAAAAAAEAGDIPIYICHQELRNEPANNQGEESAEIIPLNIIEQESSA
Kind of data set: cAMP-responsive element luciferase reporter assay, human CTR. The note with it: luciferase (human receptor assay). It is filed as cell-based. In general terms: Reporter assays use an easily measured gene product as a stand-in for the process of interest.

Another data set addresses T2, hAMY3R (Homo sapiens, UniProt O60896+P30988).
T2 sequence (P30988 25-474): T1 sequence (P30988 25-474)
T2 sequence (O60896 24-148 partner): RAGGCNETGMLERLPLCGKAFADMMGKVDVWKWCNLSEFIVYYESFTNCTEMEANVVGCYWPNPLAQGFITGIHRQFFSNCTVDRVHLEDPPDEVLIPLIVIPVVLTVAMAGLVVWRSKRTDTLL
Kind of data set: cAMP-responsive element luciferase reporter assay, human AMY3R. It is filed as cell-based. Also noted: expressed in transfected cells. The note with it: for EC50: luciferase (human receptor assay).

Structures are written as SMILES. Converted amounts (≈) assume the structure as drawn. Read-outs that look alike come from different tables or passages of the source. Numbered stars: 1 amine (or outer) side, 2 acyl side, 3 side chain; on linkers, the order of the positions; unused ones are H or OH. Bridge positions count the residues as written; N and C are the ends. Side chains are listed from the residue outwards. Peptide text beside a SMILES is read from it. * marks the point of attachment. C20 diacid = O=C(O)CCCCCCCCCCCCCCCCCCC(=O)*; γGlu = O=C(O)[C@H](CCC(=O)[*:2])N[*:1] Some results are limits rather than exact numbers.

What is called solubility (kinetic) is solubility judged after dilution from a stock solution rather than from solid. As for `CC[C@H](C)[C@H](NC(=O)[C@H](C)NC(=O)CNC(=O)[C@H](Cc1ccccc1)NC(=O)[C@H](CC(N)=O)NC(=O)[C@@H]1CCCN1C(=O)[C@H](CO)NC(=O)[C@H](CO)NC(=O)[C@H](Cc1c[nH]cn1)NC(=O)[C@H](CCCNC(=N)N)NC(=O)[C@H](CC(C)C)NC(=O)[C@H](Cc1ccccc1)NC(=O)[C@H](CC(N)=O)NC(=O)[C@H](C)NC(=O)[C@H](CC(C)C)NC(=O)[C@H](CCCNC(=N)N)NC(=O)[C@H](CCC(N)=O)NC(=O)[C@@H](NC(=O)[C@H](C)NC(=O)[C@@H]1CSSC[C@H](NC(=O)[C@H](CCCCN)NC(=O)COCCOCCNC(=O)CC[C@H](NC(=O)CCCCCCCCCCCCCCCCCCC(=O)O)C(=O)O)C(=O)N[C@@H](CC(N)=O)C(=O)N[C@@H]([C@@H](C)O)C(=O)N[C@@H](C)C(=O)N[C@@H]([C@@H](C)O)C(=O)N1)[C@@H](C)O)C(=O)N1CCC[C@H]1C(=O)N[C@@H](CO)C(=O)N[C@@H](CO)C(=O)N[C@H](C(=O)N[C@@H](CC(N)=O)C(=O)N[C@H](C(=O)NCC(=O)N[C@@H](CO)C(=O)N[C@@H](CCCNC(=N)N)C(=O)N[C@H](C(=O)N[C@@H](Cc1ccc(O)cc1)C(N)=O)[C@@H](C)O)C(C)C)[C@@H](C)O` [Peptide 15], the kinetic solubility in data set [1] (pH 4, aqueous buffer) was ≥ 200 µM; in data set [1] (pH 5, aqueous buffer) it was ≥ 200 µM; in data set [1] (pH 6, aqueous buffer), ≥ 200 µM; in data set [1] (pH 6.5, aqueous buffer), ≥ 200 µM; in data set [1] (pH 7, aqueous buffer), ≥ 200 µM; in data set [1] (pH 7.5, aqueous buffer), ≥ 200 µM. Further, in data set [1] (pH 8, aqueous buffer), the kinetic solubility was ≥ 200 µM. For the same molecule, the “ThT, pH 4.0 lag-time” value in data set [2] (250 μM peptide, 10 mM glycylglycine pH 4.0, 1 μM ThT, 37 °C, 960 rpm, 45 h, lowest of four replicas, average of experiments) came to 27 h. Further, the recovery in data set [2] (pH 4.0) is 67%. In addition, the HMWP in data set [3] (analogs 10–21 (pH 4.0 series)) was determined as 0.7%. The “Acute food intake reduction 24–48 h” value in the data set with rats is on record as 0 ± 5%.

Consider `CC[C@H](C)[C@H](NC(=O)[C@@H]1CCCN1C(=O)CNC(=O)[C@H](Cc1ccccc1)NC(=O)[C@@H]1CCCN1C(=O)[C@H](CC(N)=O)NC(=O)[C@H](CO)NC(=O)[C@H](CO)NC(=O)[C@H](Cc1c[nH]cn1)NC(=O)[C@H](CCCNC(=N)N)NC(=O)[C@H](CC(C)C)NC(=O)[C@H](Cc1ccccc1)NC(=O)[C@H](CC(=O)O)NC(=O)[C@H](C)NC(=O)[C@H](CC(C)C)NC(=O)[C@H](CCCNC(=N)N)NC(=O)[C@H](CCC(N)=O)NC(=O)[C@@H](NC(=O)[C@H](C)NC(=O)[C@@H]1CSSC[C@H](NC(=O)[C@@H](N)CCCCNC(=O)CC[C@H](NC(=O)CC[C@H](NC(=O)CCCCCCCCCCCCCCCCCCC(=O)O)C(=O)O)C(=O)O)C(=O)N[C@@H](CC(N)=O)C(=O)N[C@@H]([C@@H](C)O)C(=O)N[C@@H](C)C(=O)N[C@@H]([C@@H](C)O)C(=O)N1)[C@@H](C)O)C(=O)N[C@@H](CC(C)C)C(=O)N[C@@H](CO)C(=O)N[C@@H](CO)C(=O)N[C@H](C(=O)N[C@@H](CC(N)=O)C(=O)N[C@H](C(=O)NCC(=O)N[C@@H](CO)C(=O)N[C@@H](CC(=O)O)C(=O)N[C@H](C(=O)N[C@@H](Cc1ccc(O)cc1)C(N)=O)[C@@H](C)O)C(C)C)[C@@H](C)O` [Peptide 4] (H-K([γGlu-γGlu-C20 diacid])CNTATCATQRLADFLRHSSNPFGPILSSTNVGSDTY-NH2; disulfide 2-7), for which the EC50 is 0.676 nM on hCTR (Tables S12 and S14, read-out: hCTR pEC50 (converted)); 0.672 nM on hCTR (BHK cells stably expressing hCTR and CRE-luciferase, 3 h, 37 °C, 10% FBS, read-out: hCTR EC50); 0.269 nM at hAMY3R (Tables S12 and S14, read-out: hAMY3R pEC50 (converted)); 0.267 nM at hAMY3R (BHK cells stably expressing hCTR+RAMP3 and CRE-luciferase, 3 h, 37 °C, 10% FBS, read-out: hAMY3R EC50). The kinetic solubility in data set [1] (bis-tris-propane buffer, pH 6, aqueous buffer) was 173 µM (≈ 788 µg/mL); in data set [1] (bis-tris-propane buffer, pH 6.5, aqueous buffer), ≥ 200 µM; in data set [1] (bis-tris-propane buffer, pH 7, aqueous buffer) it was ≥ 200 µM; in data set [1] (bis-tris-propane buffer, pH 7.5, aqueous buffer) it was ≥ 200 µM; in data set [1] (bis-tris-propane buffer, pH 8, aqueous buffer) it was ≥ 200 µM; in data set [1] (lactate buffer, pH 4, aqueous buffer), ≥ 200 µM. This molecule yielded a solubility (kinetic) in data set [1] (lactate buffer, pH 5, aqueous buffer) of 38 µM (≈ 173 µg/mL). In data set [2] (250 μM peptide, 10 mM HEPES pH 7.5, 1 μM ThT, 37 °C, 960 rpm, 45 h, lowest of four replicas, average of experiments), the “ThT, pH 7.5 lag-time” value is 4 h. The molecule also came in with a recovery in data set [2] (pH 7.5) of 21%. Further, the HMWP in data set [3] (analogs 1–9 (pH 7.5 series)) came to 5%. In addition, the “ratio hCTR/hAMY3R” value at hAMY3R (ratio of luciferase EC50 values) was determined as 2.5.
